Measured values published in article PMC6155403, “Camellia sinensis L. Extract and Its Potential Beneficial Effects in Antioxidant, Anti-Inflammatory, Anti-Hepatotoxic, and Anti-Tyrosinase Activities” (Molecules : A Journal of Synthetic Chemistry and Natural …, 2017).

Columns and labels:
mushroom tyrosinase = test: Mushroom tyrosinase inhibition in vitro (dopachrome method, L-DOPA oxidation); type: biochemical; conditions: mean ± SEM; L-DOPA substrate, pH 6.8, 25 °C
Description: Briefly, 120 µL of 20 mM phosphate buffer (pH 6.8), 40 µL of 48 units/mL mushroom tyrosinase, and 20 µL of various sample concentrations with or without enzyme were placed in the wells of a 96-well microplate. After pre-incubation at 25 °C for 10 min, 20 µL of 0.85 mM L-DOPA was added, and the plate was subsequently incubated at 25 °C for 20 min. The amount of dopachrome was measured at 492 nm in an ELISA plate reader (Anthos 2010, Anthos Labtec Instruments GmbH, Wals, Austria). The extent of inhibition by the test samples was expressed as the percentage of concentration necessary to achieve 50% inhibition (IC50).

[1] = DPPH free radical scavenging assay; conditions: 30 min, room temperature (30 °C), 515 nm
Description: The DPPH method [36] was used to determine the free radical-scavenging potential of each sample. The test sample (0.1 mL) was added to 3.9 mL of DPPH solution (6 × 10^−5 M). The absorbance was measured at 515 nm after 30 min of the reaction at room temperature (30 °C). The antiradical activity was calculated as a percentage of DPPH decolouration versus a control. The results were expressed as the concentration of the FTE that scavenged 50% of the free radicals from the reaction mixture (SC50). The percent DPPH scavenging effect was calculated by using following equation [37]: (1) DPPHscavengingeffect(%)orPercentinhibition=[Ao - At/Ao]×100 where Ao is the absorbance of the control reaction and At is the absorbance in the presence of a test or standard sample. AsA, BHA, BHT, and tocopherol were used as positive references.

[2] = Chelation of ferrous metal ions (ferrozine-Fe2+ complex formation); conditions: mean ± SD; 10 min, 30 °C, 562 nm
Description: The method of Gülçin et al. was followed. The reaction mixture, containing different concentrations of each sample, FeCl2 (2 mM), and ferrozine (1.5 mM), was adjusted to a total volume of 4 mL with absolute methanol, shaken well, and incubated for 10 min at room temperature (30 °C). The absorbance of the mixture was measured at 562 nm against a blank. EDTA was used as the positive reference. The percent inhibition of ferrozine-Fe^2+ complex formation was calculated against a control. The results were expressed as the concentration of the FTE that chelated 50% of metal ions (IC50).

Anti-tyrosinase IC50 (mushroom tyrosinase) [µg/mL]	Compound	SC50 (50% inhibition of the DPPH scavenging effect) [1]	also measured
234.00 ± 6.00	O=C(O[C@@H]1Cc2c(O)cc(O)cc2O[C@@H]1c1cc(O)c(O)c(O)c1)c1cc(O)c(O)c(O)c1 [EGCG, (−)-epigallocatechin-3-gallate]	–	–
110.00 ± 0.00	Oc1cc(O)c2c(c1)O[C@H](c1cc(O)c(O)c(O)c1)[C@H](O)C2 [EGC, (−)-epigallocatechin]	–	–
76.50 ± 1.50	O=C(O[C@@H]1Cc2c(O)cc(O)cc2O[C@@H]1c1ccc(O)c(O)c1)c1cc(O)c(O)c(O)c1 [ECG, (−)-epicatechin-3-gallate]	–	–

Second part, the compound before the results:

Compound	Anti-tyrosinase IC50 (mushroom tyrosinase) [µg/mL]	SC50 (50% inhibition of the DPPH scavenging effect) [1]	also measured
Cc1cc(C(C)(C)C)c(O)c(C(C)(C)C)c1 [BHT, butylated hydroxytoluene]	–	0.224 ± 0.005 moles of tested compound/mole DPPH	–
O=C1O[C@H]([C@@H](O)CO)C(O)=C1O [AsA, ascorbic acid]	–	0.209 ± 0.006 moles of tested compound/mole DPPH	–
COc1ccc(O)c(C(C)(C)C)c1 [BHA, butylated hydroxyanisole]	–	0.184 ± 0.011 moles of tested compound/mole DPPH	–
Cc1c(C)c2c(c(C)c1O)CCC(C)(CCCC(C)CCCC(C)CCCC(C)C)O2 (racemic) [Tocopherol, DL-α-tocopherol]	–	0.196 ± 0.005 moles of tested compound/mole DPPH	–
O=C(O)CN(CCN(CC(=O)O)CC(=O)O)CC(=O)O [EDTA, ethylenediaminetetraacetic acid]	–	–	Iron(II)-chelating IC50 [2]: 10 ± 0 µg/mL
